Data on 13 compounds can be found in US9790221B2, “Heteroaryl compounds as IRAK inhibitors and uses thereof” (Merck Patent GmbH, priority 2014, dated 2017).

SMILES strings stand for the structures. Structures can show the parent of a compound that is named as a salt.

The subject of assay [1] is TLR7 induced IL-6 secretion in human mononuclear cells (PBMC's). The experiment in a line: TLR7 induced IL-6 in human PBMC's. The assay is classed as cell-based. The note with it: Homo sapiens, PBMC, read-out: TLR7 induced IL-6 secretion in hPBMC's (IC50). The procedure, abridged:
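Fresh or frozen healthy-donor PBMCs preincubated 30 min at 37° C. with compound (25 uM to 0.4 nM; vehicle 0.25% DMSO) in RPMI/10% HI-FBS. Stimulated with TLR7 ligand (2 uM) for 16-18 h at 37° C.; supernatant IL-6 measured by AlphaLISA.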

For assay [2], the target named is IRAK1 (His-TEV-IRAK1 (194-712)) (Homo sapiens (Human), UniProt P51617). Briefly: IRAK1 enzymatic assay. The assay is classed as biochemical. The procedure, abridged: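 Compounds ([…] down to 1 nM) were incubated 3 h at 30° C with His-TEV-IRAK1 (194-712, 15 ng/well) and 1 μM [33P]-labelled ATP in 50 mM Hepes pH 7.0, 10 mM MgCl2. After EDTA stop and washing, the retained autophosphorylation signal was measured by scintillation in streptavidin-coated plates.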

Assay [3] concerns the target IRAK4 (Homo sapiens (Human), UniProt Q9NWZ3). The experiment in a line: IRAK4 enzymatic assay. The assay is classed as biochemical. The procedure, abridged: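 Radiometric streptavidin FlashPlate read: 3 h, 30° C incubation of His-TEV-IRAK4 (20 ng/well), STK1-biotin substrate (300 nM) and ATP (2 μM, [^33P]-labelled) in Hepes pH 7.0, MgCl2 10 mM, MnCl2 5 mM. Compounds from 20 µM down to 1 nM, 2% DMSO controls; reaction quenched with EDTA.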

Sequence of IRAK4 (Q9NWZ3 whole entry): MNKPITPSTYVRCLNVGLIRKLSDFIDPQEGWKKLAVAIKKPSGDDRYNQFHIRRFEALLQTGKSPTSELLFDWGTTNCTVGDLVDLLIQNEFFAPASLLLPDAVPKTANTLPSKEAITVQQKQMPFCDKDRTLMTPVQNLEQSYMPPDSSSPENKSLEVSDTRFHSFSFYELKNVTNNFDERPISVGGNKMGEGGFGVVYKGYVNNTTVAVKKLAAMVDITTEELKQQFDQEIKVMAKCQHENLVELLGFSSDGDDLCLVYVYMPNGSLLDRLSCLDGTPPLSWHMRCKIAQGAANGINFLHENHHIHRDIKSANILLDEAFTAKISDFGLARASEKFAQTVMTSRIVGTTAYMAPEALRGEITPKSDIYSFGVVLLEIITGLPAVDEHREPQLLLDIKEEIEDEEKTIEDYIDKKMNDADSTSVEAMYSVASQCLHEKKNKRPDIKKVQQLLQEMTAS
Sequence of IRAK1 (His-TEV-IRAK1 (194-712)) (P51617 194-712): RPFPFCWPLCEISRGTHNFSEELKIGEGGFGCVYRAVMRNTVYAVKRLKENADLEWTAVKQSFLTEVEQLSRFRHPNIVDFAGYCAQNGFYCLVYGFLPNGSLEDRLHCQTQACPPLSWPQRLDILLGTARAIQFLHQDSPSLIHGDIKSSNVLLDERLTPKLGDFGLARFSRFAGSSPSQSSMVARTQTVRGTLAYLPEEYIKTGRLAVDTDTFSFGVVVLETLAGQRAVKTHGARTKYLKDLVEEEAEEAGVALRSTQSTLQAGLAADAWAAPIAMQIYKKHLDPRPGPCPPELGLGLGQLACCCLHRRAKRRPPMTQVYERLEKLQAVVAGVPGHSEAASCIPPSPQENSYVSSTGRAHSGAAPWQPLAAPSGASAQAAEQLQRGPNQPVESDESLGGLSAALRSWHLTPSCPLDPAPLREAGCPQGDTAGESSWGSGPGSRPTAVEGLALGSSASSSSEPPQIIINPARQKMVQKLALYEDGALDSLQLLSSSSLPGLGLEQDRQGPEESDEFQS

`Cn1cc(-c2cccc(-c3ncc(-c4ccn(C)n4)c(NC[C@@H](O)CO)n3)c2)cn1` [Example 83]: the IC50 in assay [1] was 0.1 to 1 µM; in assay [2], 1 to 5 µM; in assay [3], 0.1 to 1 µM.
With `Cn1cc(-c2cccc(-c3ncc(-c4cnn(C)c4)c(NC4CCOCC4)n3)c2)cn1` [Example 137], the half-inhibitory concentration (IC50) is 0.1 to 1 µM in assay [1], 0.1 to 1 µM in assay [2] and less than 0.1 µM in assay [3].
As to `Cn1cc(-c2cccc(-c3ncc(-c4cnn(C)c4)c(N[C@@H]4CC[C@H](N)C4)n3)c2)cn1` (racemic) [Example 108], the IC50 in assay [1] is 0.1 to 1 µM; in assay [2], 0.1 to 1 µM; in assay [3], less than 0.1 µM.
`Cn1cc(-c2cccc(-c3ncc(-c4cnn(C)c4)c(NCC4CC(O)C4)n3)c2)cn1` (stereo not drawn) [Example 181]: the concentration for half-maximal inhibition (IC50) was 1 to 5 µM in assay [1], 0.1 to 1 µM in assay [2] and less than 0.1 µM in assay [3].
For `Cc1nnc(-c2cnc(-c3cccc(-c4cnn(C)c4)c3)nc2NC2CCC(NS(=O)(=O)C3CC3)CC2)s1` (stereo not drawn) [Example 209] the same measures were 0.1 to 1 µM, less than 0.1 µM and less than 0.1 µM.
For `Cn1cc(-c2cccc(-c3ncc(-c4cnn(C)c4)c(N[C@H]4CC[C@H](NS(C)(=O)=O)C4)n3)c2)cn1` [Example 190] the same measures were 1 to 5 µM, less than 0.1 µM and less than 0.1 µM.
On to `Cn1cc(-c2cccc(-c3ncc(-c4cnn(C)c4)c(NC45CC(CNS(C)(=O)=O)(C4)C5)n3)c2)cn1` [Example 245], for which the IC50 in assay [1] is 0.1 to 1 µM; in assay [2], less than 0.1 µM; in assay [3], less than 0.1 µM.
For the compound `Cn1cc(-c2cccc(-c3ncc(-c4cnn(C)c4)c(NCC4(O)CCNCC4(C)C)n3)c2)cn1` (stereo not drawn) [Example 112], the IC50 was in the range of 1 to 5 µM in assay [1], 1 to 5 µM in assay [2] and 0.1 to 1 µM in assay [3].
Regarding `Cn1cc(-c2cccc(-c3ncc(-c4ccn(C)n4)c(NC4C5CCCC4CC(N)C5)n3)c2)cn1` (stereo not drawn) [Example 152], the figures for the IC50 in assay [1], in assay [2] and in assay [3] were 0.1 to 1 µM, 0.1 to 1 µM and less than 0.1 µM, respectively.
Regarding `Cn1cc(-c2cccc(-c3ncc(-c4cnn(C)c4)c(NCCN4CCOC4=O)n3)c2)cn1` [Example 38], the 50% inhibitory concentration (IC50) in assay [1] is more than 5 µM; in assay [2], 1 to 5 µM; in assay [3] it was 0.1 to 1 µM.
For `Cn1cc(-c2cccc(-c3ncc(-c4cnn(C)c4)c(N[C@@H]4CCC[C@@H](O)[C@H]4O)n3)c2)cn1` (racemic) [Example 133, (1R,2S,3R)-3-{5-(1-Methyl-1H-pyrazol-4-yl)-2-[3-(1-methyl-1H-pyrazol-4-yl)-phenyl]-pyrimidin-4-ylamino}-cyclohexane-1,2-diol] the same measures were 0.1 to 1 µM, 0.1 to 1 µM and less than 0.1 µM.
Turning to `Cn1cc(-c2cccc(-c3ncc(-c4cnn([C@H]5CC[C@]6(CCC(=O)N6C)CC5)c4)c(NCC4CCNCC4)n3)c2)cn1` [Example 86, 1-Methyl-8-(4-{2-[3-(1-methyl-1H-pyrazol-4-yl)-phenyl]-4-[(piperidin-4-ylmethyl)-amino]-pyrimidin-5-yl}-pyrazol-1-yl)-1-aza-spiro[4.5]decan-2-one Hydrochloride], the IC50 is more than 5 µM in assay [1], 1 to 5 µM in assay [2] and less than 0.1 µM in assay [3].
`Cn1cc(-c2cccc(-c3ncc(-c4cnn(C)c4)c(N[C@@H]4CCN(S(C)(=O)=O)C4)n3)c2)cn1` [Example 171]: the figures for the IC50 in assay [1], in assay [2] and in assay [3] were 1 to 5 µM, less than 0.1 µM and less than 0.1 µM, respectively.
